Data: patent publication US8592405B2, “Synergistic antimicrobial composition” (Dow Global Technologies LLC, priority 2009, dated 2013)
Several values for one entry are separate records, joined by “and”; a condition that tells them apart may be missing. Equal entries are not always repeated.

Columns and labels:
Assay type in all cases: cell-based
[1] = tested on: Calothrix parientina (Cp); experiment: Algal efficacy testing, modified ASTM 5589 (12-well, dry paint film); settings: three weeks; for % inhibition: at the Total conc; for Total conc, ppm: total biocide in paint taken as minimum inhibitory concentration
Procedure: (§1) Samples of white acrylic latex paint free of biocides were prepared in 50 ml aliquots. Each biocide was post added to give the necessary active ingredient concentration in the paint. The total biocides concentrations tested were 750, 1500, 2500 and 5000 ppm. After biocides addition, each sample was hand mixed for a minimum of 30 sec, followed by a 3 min run on the paint shaker (RED DEVIL). Each of the paint samples as well as a control sample (containing no biocide) were used to prepare films on black plastic-vinyl chloride/acetate copolymer panels (LENETA, Mahwah, N.J.) using a 3 mil bird bar applicator. The panels were thoroughly dried for 5 days avoiding direct exposure to sunlight. Square discs (15 mm^2) were cut out from each panel and were used as the substrate for fungal and algal efficacy tests. This sample size allowed for an agar border when the sample disc was placed into the well of the test plate.
(§2) The appropriate media (BOLD'S 3N for Chlorophytes, BG-11 for Cyanobacteria, and PDA for fungi) were used to support microbial growth. The test plates were maintained at room temp (25° C.-26° C.), in a cycled light-dark environment, for 3 weeks for algae. Plates for fungal challenge tests were maintained at 30C for three weeks. At the end of incubation period the samples were scored for percent area covered by visible microbial growth.
(§3) ASTM 5589 is a standard accelerated test method for determining resistance of various coatings (including paints) to algal defacement. To accommodate for high-throughput screening, this method was scaled down from petri plates to 12-well plates. A single coupon was placed with a pair of sterile forceps at the center of the agar plug (on top) with the painted surface facing upwards. Each well was inoculated with 150 μl of organism (1×10^8 cfu/ml) making sure that the whole surface (paint film as well as the agar surrounding it) was evenly covered. The plates were incubated at room temp (25° C.-26° C.) with cyclic exposure to light (OTT-Lite model #OTL4012P, 40 Watt, 26 KLumen) and dark phases, for a period of three weeks. The total area covered was evaluated at the end of each week according to percent area covered in 5% increments. While rating the plates, notations were made for zones of inhibition.
(§4) The SI is calculated based on F. C. Kull et.

[2] = tested on: Trentepohlia aurea + Trentepohlia odorata (Ta + To); experiment: as above; settings: three weeks; for % inhibition: at the Total conc; for Total conc, ppm: total biocide in paint taken as minimum inhibitory concentration
Procedure: as §1, §2, §3, §4

[3] = tested on: Chlorella sp. + Chlorella kessleri (Cs + Ck); experiment: as above; settings: three weeks; for % inhibition: at the Total conc; for Total conc, ppm: total biocide in paint taken as minimum inhibitory concentration
Procedure: as §1, §2, §3, §4

Nostoc commune (Nc) = experiment: as above; settings: three weeks; for % inhibition: at the Total conc; for Total conc, ppm: total biocide in paint taken as minimum inhibitory concentration
Procedure: as §1, §2, §3, §4

Oscillatoria sp. (Os) = experiment: as above; settings: three weeks; for % inhibition: at the Total conc; for Total conc, ppm: total biocide in paint taken as minimum inhibitory concentration
Procedure: as §1, §2, §3, §4

[4] = tested on: Cs + Ck + Nc (Chlorella sp., Chlorella kessleri, Nostoc commune); experiment: Algal efficacy testing, modified ASTM 5589 (6-well, mixed inoculum, Example 4); settings: four weeks; for Total conc, ppm: Cs + Ck + Nc mixed inoculum, NE = no end point at the concentration tested; for % inhibition: Cs + Ck + Nc, at the Total conc
Procedure: (§5) A single or blend of biocides was post added into white acrylic latex paint free of biocides to give a maximum total active ingredient/s concentration tested. This paint was then diluted with a biocide free acrylic latex paint at concentrations range of 75 to 12.5% w/w to give desired concentrations for the testing. Depending on the type of biocide blends tested, the total biocides concentrations varies from 200 to 5000 ppm. After biocides addition or dilution each sample was hand mixed for at least a minute until uniformity is achieved. Each of the paint samples as well as a control sample (containing no biocide) were used to prepare films on black plastic-vinyl chloride/acetate copolymer panels (LENETA, Mahwah, N.J.) using a 3 mil bird bar applicator. The panels were thoroughly dried for at least 2 days avoiding direct exposure to sunlight. Square discs (0.5 inch^2, 13 mm^2) were cut out from each panel and were used as the substrate for fungal and algal efficacy tests. This sample size allowed for an agar border when the sample disc was placed into the well of the test plate. Each sample was tested in duplicate
as §2, with “for four” for “for 3”, “at 30 C” for “at 30C”, “for four” for “for three”, “of the” for “of”
as §3, with “6-well” for “12-well”, “upwards. Algal inoculums were prepared by mixing equal concentrations (1×10^6 cfu/ml) and equal volumes (depending on number of samples to be inoculated) of like growing organisms. In this study, Gloeocapsa sp. and Oscillatoria sp. were a mix of cyanobacteria grown on BG-11 media. Chlorella sp., Chlorella kessleri, and Nostoc commune are unicellular chlorphytes that were mixed and grown on Bold media. Trentepohlia aurea, Trentepohlia odorata, and Calotrix parientina are filamentous algae that were mixed and grown on Bold media.” for “upwards.”, “400” for “150”, “mixture (1×10^6” for “(1×10^8”, “four” for “three”

[5] = tested on: Cp + To + Ta (Calotrix parientina, Trentepohlia odorata, Trentepohlia aurea); experiment: as above; settings: four weeks; for Total conc, ppm: Cp + To + Ta mixed inoculum, NE = no end point at the concentration tested; for % inhibition: Cp + To + Ta, at the Total conc
Procedure: as §5
as §2, with “for four” for “for 3”, “at 30 C” for “at 30C”, “for four” for “for three”, “of the” for “of”
as §3, with “6-well” for “12-well”, “upwards. Algal inoculums were prepared by mixing equal concentrations (1×10^6 cfu/ml) and equal volumes (depending on number of samples to be inoculated) of like growing organisms. In this study, Gloeocapsa sp. and Oscillatoria sp. were a mix of cyanobacteria grown on BG-11 media. Chlorella sp., Chlorella kessleri, and Nostoc commune are unicellular chlorphytes that were mixed and grown on Bold media. Trentepohlia aurea, Trentepohlia odorata, and Calotrix parientina are filamentous algae that were mixed and grown on Bold media.” for “upwards.”, “400” for “150”, “mixture (1×10^6” for “(1×10^8”, “four” for “three”

[6] = tested on: Gs + Os (Gloeocapsa sp. + Oscillatoria sp.); experiment: as above; settings: four weeks; for Total conc, ppm: Gs + Os mixed inoculum, NE = no end point at the concentration tested; for % inhibition: Gs + Os, at the Total conc
Procedure: as §5
as §2, with “for four” for “for 3”, “at 30 C” for “at 30C”, “for four” for “for three”, “of the” for “of”
as §3, with “6-well” for “12-well”, “upwards. Algal inoculums were prepared by mixing equal concentrations (1×10^6 cfu/ml) and equal volumes (depending on number of samples to be inoculated) of like growing organisms. In this study, Gloeocapsa sp. and Oscillatoria sp. were a mix of cyanobacteria grown on BG-11 media. Chlorella sp., Chlorella kessleri, and Nostoc commune are unicellular chlorphytes that were mixed and grown on Bold media. Trentepohlia aurea, Trentepohlia odorata, and Calotrix parientina are filamentous algae that were mixed and grown on Bold media.” for “upwards.”, “400” for “150”, “mixture (1×10^6” for “(1×10^8”, “four” for “three”

Aspergillus niger (An) = experiment: Fungal efficacy testing, modified ASTM 5590 (12-well, dry paint film); settings: three weeks; for Total conc, ppm: total biocide in paint taken as minimum inhibitory concentration, 30 C; for % inhibition: at the Total conc
Procedure: as §1, §2
ASTM 5590 is a standard accelerated test method for determining resistance of various coatings (including paints) to fungal defacement. To accommodate for high-throughput screening, this method was scaled down from petri plates to 12-well plates. To set up the test, an agar plug was placed at the bottom of each well of the sterile 12-well plate. A single coupon was placed with a pair of sterile forceps at the center of the agar plug (on top) with the painted surface facing upwards. Each well was inoculated with 150 μl of organism (1×10^6 cfu/ml) making sure that the whole surface (paint film as well as the agar surrounding it) was evenly covered. The plates were incubated at 30° C. in presence of moisture, for a period of three weeks. The total percent area covered was evaluated and recorded at the end of each week after the 2nd week and recorded in increments of 5%. […]

Row | SMILES | % inhibition [1] | Total conc, ppm [1] | % inhibition [2] | Total conc, ppm [2] | % inhibition [3] | % inhibition (Nostoc commune (Nc)) | Total conc, ppm (Nostoc commune (Nc)) | % inhibition (Oscillatoria sp. (Os)) | Total conc, ppm [4] | % inhibition [4] | Total conc, ppm [5] | % inhibition [5] | Total conc, ppm [6] | % inhibition [6] | Total conc, ppm (Aspergillus niger (An)) | Total conc, ppm [3] | Total conc, ppm (Oscillatoria sp. (Os)) | % inhibition (Aspergillus niger (An))
1 | CN(C)C(=O)Nc1cccc(C(F)(F)F)c1 [Fluometuron, 1,1-dimethyl-3-(α,α,α-trifluoro-m-tolyl)urea] | 100% and 95% and 90% | 750 ppm | 95% and 82.5% and 62.5% | 750 ppm and 1500 ppm | 100% and 90.00% and 80% | 100% and 90% and 85% | 750 ppm | 95% and 62.5% and 82.5% | 1250 ppm | 100% | 1250 ppm | 100% | 312.5 ppm | 100% | 2500 ppm and 5000 ppm | – | – | –
2 | Cc1ccc(S(=O)(=O)C(I)I)cc1 [DIMTS, diiodomethyl-p-tolylsulfone] | 85% | 1500 ppm | 62.5% | 2500 ppm | 70% | 80% | 5000 ppm | 80% | 1250 ppm | 100% | 1875 ppm | 95% | 1875 ppm | 100% | 750 ppm | 2500 ppm | 1500 ppm | 75%
3 | CCCCCCCCn1sc(Cl)c(Cl)c1=O [DCOIT, 4,5-dichloro-2-n-octyl-4-isothiazolin-3-one] | 75% | 1500 ppm | 72.5% | 1500 ppm | 70% | 82.5% | 750 ppm | 80% | 575 ppm | 100% | 575 ppm | 100% | 287.5 ppm | 100% | 5000 ppm | 1500 ppm | 750 ppm | 75%
